Results published in patent US8344135B2, “Heterocyclic compound and use thereof” (Takeda Pharmaceutical Company Limited, priority 2007, dated 2013).

Target: T1, BRAF (V600E) (Homo sapiens, UniProt P15056, V600E)
T1 construct: area encoding the BRAF kinase domain region, so that the protein contains an N-terminal Flag; made in house; host or cells: SF-21 insect cells infected with recombinant baculovirus BAC-V600E
Assay: Determination of BRAF (V600E) kinase inhibitory activity
Assay type: biochemical
Details: test compound 1.0 μM; substrate GST-MEK1 (K96R); [γ-32P]ATP; read-out: Inhibitory rate (%) at 1.0 μM
Protocol: Determination of BRAF (V600E) Kinase Inhibitory Activity
A test compound (2.5 μL) dissolved in dimethyl sulfoxide (DMSO) was added to 37.5 μL of a reaction solution (25 mM HEPES (pH 7.5), 10 mM magnesium acetate, 1 mM dithiothreitol) containing BRAF (V600E) enzyme (30 ng) and recombinant type protein GST-MEK1 (K96R) 250 ng, and the mixture was incubated at room temperature for 10 min. ATP solution (10 μL, 2.5 μM ATP, 0.1 μCi [γ-^32P]ATP) was added to the obtained mixture, and the mixture was reacted at room temperature for 20 min. The reaction was quenched by adding 50 μL of ice-cooled 20% trichloroacetic acid (Wako Pure Chemical Industries, Ltd.). The reaction solution was allowed to stand at 4° C. for 30 min, and the acid-precipitable fraction was transferred to GF/C filter plate (Millipore Corporation) using cell harvester (PerkinElmer). The plate was dried at 45° C. for 60 min, and 40 μL of MicroScinti 0 (PerkinElmer) was added thereto. The radioactivity was measured using TopCount (PerkinElmer). The kinase inhibitory rate (%) of the test compound was calculated by the following formula: Inhibitory rate (%)=(1−(count of test compound−blank)÷(control−blank))×100
The count of the solution reacted without addition of the compound was used as a “control”, and the count of the solution without the compound and enzyme was used as a “blank”.

T1 sequence (P15056 457-717 V600E limits assumed): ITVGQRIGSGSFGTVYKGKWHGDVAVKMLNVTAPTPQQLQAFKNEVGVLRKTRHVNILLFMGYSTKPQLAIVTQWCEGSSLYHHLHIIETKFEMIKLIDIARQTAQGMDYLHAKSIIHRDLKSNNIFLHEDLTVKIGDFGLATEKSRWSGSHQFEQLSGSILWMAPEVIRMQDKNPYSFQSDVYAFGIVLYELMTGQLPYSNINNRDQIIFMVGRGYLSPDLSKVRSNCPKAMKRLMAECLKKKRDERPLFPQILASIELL

Compound	inhibition at 1 µM
CC(C)(C#N)c1cccc(C(=O)Nc2cc(Oc3ccc4nc(NC(=O)C5CC5)sc4n3)ccc2F)c1Cl [Example C63, 2-chloro-3-(1-cyano-1-methylethyl)-N-[5-({2-[(cyclopropylcarbonyl)amino][1,3]thiazolo[5,4-b]pyridin-5-yl}oxy)-2-fluorophenyl]benzamide]	101%
Cc1ccc(Oc2ccc3nc(NC(=O)c4cocn4)sc3n2)cc1NC(=O)c1cccc(C2(C#N)CC2)c1 [Example C30, N-[5-(3-{[3-(1-cyanocyclopropyl)benzoyl]amino}-4-methylphenoxy)[1,3]thiazolo[5,4-b]pyridin-2-yl]-1,3-oxazole-4-carboxamide]	100%
CN1CCN(CC(=O)Nc2nc3ccc(Oc4cccc(NC(=O)c5cccc(C(C)(C)C#N)c5)c4)nc3s2)CC1 [Example C25, 3-(1-cyano-1-methylethyl)-N-{3-[(2-{[(4-methylpiperazin-1-yl)acetyl]amino}[1,3]thiazolo[5,4-b]pyridin-5-yl)oxy]phenyl}benzamide]	100%
Cc1ccc(Oc2ccc3nc(NC(=O)CO)sc3n2)cc1NC(=O)c1cccc(C(C)(C)C#N)c1 [Example C36, 3-(1-cyano-1-methylethyl)-N-(5-{[2-(glycoloylamino)[1,3]thiazolo[5,4-b]pyridin-5-yl]oxy}-2-methylphenyl)benzamide]	100%
Cc1ccc(NC(=O)c2cccc(C3(C#N)CC3)c2)cc1Oc1ccc2nc(NC(=O)CO)sc2n1 [Example C17, 3-(1-cyanocyclopropyl)-N-(3-{[2-(glycoloylamino)[1,3]thiazolo[5,4-b]pyridin-5-yl]oxy}-4-methylphenyl)benzamide]	99%
O=C(Nc1cccc(Nc2ccc3nc(NC(=O)C4CC4)sc3n2)c1)c1cccc(C(F)(F)F)c1 [Example C41, N-[3-({2-[(cyclopropylcarbonyl)amino][1,3]thiazolo[5,4-b]pyridin-5-yl}amino)phenyl]-3-(trifluoromethyl)benzamide]	100%
N#CC1(c2cccc(C(=O)Nc3cc(Oc4ccc5nc(NC(=O)C6CC6)sc5n4)c(F)cc3F)c2Cl)CC1 [Example C75, 2-chloro-3-(1-cyanocyclopropyl)-N-[5-({2-[(cyclopropylcarbonyl)amino][1,3]thiazolo[5,4-b]pyridin-5-yl}oxy)-2,4-difluorophenyl]benzamide]	100%
CC(C)(C#N)c1cccc(C(=O)Nc2cc(Oc3ccc4nc(NC(=O)C5CC5)sc4n3)c(Cl)cc2F)c1 [Example C60, N-[4-chloro-5-({2-[(cyclopropylcarbonyl)amino][1,3]thiazolo[5,4-b]pyridin-5-yl}oxy)-2-fluorophenyl]-3-(1-cyano-1-methylethyl)benzamide]	100%
CC(=O)Nc1nc2cnc(N(C)c3cccc(NC(=O)c4cccc(C(F)(F)F)c4)c3)nc2s1 [Example D1, N-{3-[[2-(acetylamino)[1,3]thiazolo[5,4-d]pyrimidin-5-yl](methyl)amino]phenyl}-3-(trifluoromethyl)benzamide]	98%

Test system: human colon cancer cell HT-29
Assay: Colon cancer cell HT-29 growth suppressive action in vitro
Assay type: cell-based
Details: 72 h, HT-29 cells, 3 days culture, SRB staining, read-out: IC50 (nM), cell growth suppression
Protocol: Colon Cancer Cell HT-29 Growth Suppressive Action in vitro
A cell suspension (100 μL, 3,000 cells/well) of human colon cancer cell HT-29 (purchased from ATCC) was plated in a 96-well plate, and the cells were cultured at 37° C. in a 5% carbon dioxide gas incubator. The next day, 2-fold serial dilution of each test compound solution (diluted from maximum concentration 20 μM) (100 μL) was added, and the cells were cultured for 3 days. The culture medium containing the test compound was removed, and the cells were washed with phosphate buffer (PBS). A 50% trichloroacetic acid solution was added to the final concentration of 10% (v/v), and the mixture was stood overnight at 4° C., whereby the cells were fixed to the plate. Then, a dye SRB 0.4% (w/v) solution (dissolved in 1% acetic acid) was added at 50 μl/well, whereby the cell protein was fixed and stained (Skehan et al., Journal Of National Cancer Institute, vol. 82, pp. 1107-1112, 1990). The cells were washed 3 times with 1% acetic acid solution (200 μL/well), and 100 μL of an extract (10 mM Tris buffer) was added to extract the dye. The absorbance at an absorption wavelength […] was measured, and cell amount was measured as a protein amount.

Compound	IC50
CC(C)(C#N)c1cccc(C(=O)Nc2cccc(Oc3ccc4nc(NC(=O)C5CC5)sc4n3)c2)c1 [Example C23, 3-(1-cyano-1-methylethyl)-N-[3-({2-[(cyclopropylcarbonyl)amino][1,3]thiazolo[5,4-b]pyridin-5-yl}oxy)phenyl]benzamide]	< 500 nM
CN1CCN(CC(=O)Nc2nc3ccc(Oc4cccc(NC(=O)c5cccc(C6(C#N)CC6)c5)c4)nc3s2)CC1 [Example C28, 3-(1-cyanocyclopropyl)-N-{3-[(2-{[(4-methylpiperazin-1-yl)acetyl]amino}[1,3]thiazolo[5,4-b]pyridin-5-yl)oxy]phenyl}benzamide]	< 500 nM
CC(=O)Nc1nc2cnc(Nc3cc(NC(=O)c4cccc(C(C)(C)C#N)c4Cl)ccc3C)nc2s1 [Example D35, N-(3-{[2-(acetylamino)[1,3]thiazolo[5,4-d]pyrimidin-5-yl]amino}-4-methylphenyl)-2-chloro-3-(1-cyano-1-methylethyl)benzamide]	< 500 nM
CN(c1ccc(F)c(NC(=O)c2cccc(OC(C)(C)C#N)c2Cl)c1)c1ccc2nc(NC(=O)C3CC3)sc2n1 [Example C122, 2-chloro-3-(1-cyano-1-methylethoxy)-N-{5-[{2-[(cyclopropylcarbonyl)amino][1,3]thiazolo[5,4-b]pyridin-5-yl}(methyl)amino]-2-fluorophenyl}benzamide]	< 500 nM
CC(C)(C#N)Oc1cccc(C(=O)Nc2cc(Nc3ccc4nc(NC(=O)C5CC5)sc4n3)ccc2F)c1Cl [Example C126, 2-chloro-3-(1-cyano-1-methylethoxy)-N-[5-({2-[(cyclopropylcarbonyl)amino][1,3]thiazolo[5,4-b]pyridin-5-yl}amino)-2-fluorophenyl]benzamide]	< 500 nM
CN1CCN(CC(=O)Nc2nc3cnc(N(C)c4cccc(NC(=O)c5cccc(C(C)(C)C#N)c5)c4)nc3s2)CC1 [Example D11, 3-(1-cyano-1-methylethyl)-N-{3-[methyl(2-{[(4-methylpiperazin-1-yl)acetyl]amino}[1,3]thiazolo[5,4-d]pyrimidin-5-yl)amino]phenyl}benzamide]	< 500 nM
COc1ccc(NC(=O)c2cccc(C(C)(C)C#N)c2)cc1Oc1ccc2nc(NC(=O)C3CC3)sc2n1 [Example C6, 3-(1-cyano-1-methylethyl)-N-[3-({2-[(cyclopropylcarbonyl)amino][1,3]thiazolo[5,4-b]pyridin-5-yl}oxy)-4-methoxyphenyl]benzamide]	< 500 nM
CCN1CCN(CC(=O)Nc2nc3ccc(Oc4cc(NC(=O)c5cccc(C(C)(C)C#N)c5)ccc4C)nc3s2)CC1 [Example C88, 3-(1-cyano-1-methylethyl)-N-{3-[(2-{[(4-ethylpiperazin-1-yl)acetyl]amino}[1,3]thiazolo[5,4-b]pyridin-5-yl)oxy]-4-methylphenyl}benzamide]	< 500 nM
N#CC1(c2cccc(C(=O)Nc3cc(Oc4ccc5nc(NC(=O)C6CC6)sc5n4)ccc3F)c2Cl)CC1 [Example C66, 2-chloro-3-(1-cyanocyclopropyl)-N-[5-({2-[(cyclopropylcarbonyl)amino][1,3]thiazolo[5,4-b]pyridin-5-yl}oxy)-2-fluorophenyl]benzamide]	< 500 nM
Cc1ccc(NC(=O)c2cccc(C(C)(C)C#N)c2)cc1Nc1ncc2nc(NC(=O)C3CC3)sc2n1 [Example D25, 3-(1-cyano-1-methylethyl)-N-[3-({2-[(cyclopropylcarbonyl)amino][1,3]thiazolo[5,4-d]pyrimidin-5-yl}amino)-4-methylphenyl]benzamide]	< 500 nM
Cc1ccc(NC(=O)c2cccc(C3(C#N)CC3)c2)cc1Oc1ccc2nc(NC(=O)CN3CCN(C)CC3)sc2n1 [Example C19, 3-(1-cyanocyclopropyl)-N-{4-methyl-3-[(2-{[(4-methylpiperazin-1-yl)acetyl]amino}[1,3]thiazolo[5,4-b]pyridin-5-yl)oxy]phenyl}benzamide]	< 500 nM
Cc1ccc(NC(=O)c2cccc(C(C)(C)C#N)c2)cc1Nc1ncc2nc(NC(=O)CN3CCN(C)CC3)sc2n1 [Example D33, 3-(1-cyano-1-methylethyl)-N-{4-methyl-3-[(2-{[(4-methylpiperazin-1-yl)acetyl]amino}[1,3]thiazolo[5,4-d]pyrimidin-5-yl)amino]phenyl}benzamide]	< 500 nM
Cc1ccc(NC(=O)c2cccc(C(C)(C)C#N)c2)cc1Oc1ccc2nc(NC(=O)CN3CCN(C)CC3)sc2n1 [Example C15, 3-(1-cyano-1-methylethyl)-N-{4-methyl-3-[(2-{[(4-methylpiperazin-1-yl)acetyl]amino}[1,3]thiazolo[5,4-b]pyridin-5-yl)oxy]phenyl}benzamide]	< 500 nM
Cc1ccc(NC(=O)c2cccc(C(C)(C)C#N)c2)cc1Oc1ccc2nc(NC(=O)C3CC3)sc2n1 [Example C12, 3-(1-cyano-1-methylethyl)-N-[3-({2-[(cyclopropylcarbonyl)amino][1,3]thiazolo[5,4-b]pyridin-5-yl}oxy)-4-methylphenyl]benzamide]	< 500 nM
CC(C)(C#N)c1cccc(C(=O)Nc2cccc(Oc3ccc4nc(NC(=O)CO)sc4n3)c2)c1 [Example C24, 3-(1-cyano-1-methylethyl)-N-(3-{[2-(glycoloylamino)[1,3]thiazolo[5,4-b]pyridin-5-yl]oxy}phenyl)benzamide]	< 500 nM
